In the NIST ThermoML archive (doi:10.1016/j.jct.2018.01.015):
± gives the expanded uncertainty stated by the source.

Experiment: xn = mol fraction of the nth substance listed
Details: Gas, rotating-body viscometer for gases

N#N [nitrogen] + O=C=O
Details	viscosity [mPa·s]
253.16 K, 203.1 kPa, x1 = 0.7498	0.01498 ± 4.6e-05
253.16 K, 399 kPa, x1 = 0.7498	0.01501 ± 4.6e-05
253.16 K, 601.1 kPa, x1 = 0.7498	0.01505 ± 4.6e-05
253.16 K, 797.1 kPa, x1 = 0.7498	0.01509 ± 4.6e-05
253.16 K, 998.4 kPa, x1 = 0.7498	0.01514 ± 4.6e-05
253.17 K, 100.3 kPa, x1 = 0.7498	0.01495 ± 4.6e-05
253.17 K, 108.1 kPa, x1 = 0.4996	0.01423 ± 4.2e-05
253.17 K, 200.4 kPa, x1 = 0.4996	0.01425 ± 4.2e-05
253.17 K, 398.3 kPa, x1 = 0.4996	0.01427 ± 4.2e-05
253.17 K, 596.2 kPa, x1 = 0.4996	0.01431 ± 4.2e-05
253.17 K, 798.8 kPa, x1 = 0.4996	0.01435 ± 4.2e-05
253.18 K, 110.4 kPa, x1 = 0.2479	0.01347 ± 5.3e-05
253.18 K, 203.7 kPa, x1 = 0.2479	0.01348 ± 5.3e-05
253.18 K, 396.3 kPa, x1 = 0.2479	0.01348 ± 5.3e-05
253.18 K, 605.2 kPa, x1 = 0.2479	0.01352 ± 5.3e-05
253.21 K, 100.8 kPa, x1 = 1	0.01561 ± 3e-05
253.21 K, 200.9 kPa, x1 = 1	0.01564 ± 3e-05
253.21 K, 400.7 kPa, x1 = 1	0.01566 ± 3e-05
253.21 K, 600.8 kPa, x1 = 1	0.01571 ± 3e-05
253.21 K, 800.8 kPa, x1 = 1	0.01574 ± 3e-05
253.21 K, 1000.9 kPa, x1 = 1	0.01579 ± 3e-05
253.21 K, 1200.9 kPa, x1 = 1	0.01584 ± 3e-05
273.19 K, 108.8 kPa, x1 = 0.7498	0.01597 ± 4.7e-05
273.19 K, 109.2 kPa, x1 = 0.4996	0.01525 ± 4.2e-05
273.19 K, 201 kPa, x1 = 0.7498	0.01599 ± 4.7e-05
273.19 K, 400.9 kPa, x1 = 0.4996	0.0153 ± 4.2e-05
273.19 K, 401.7 kPa, x1 = 0.7498	0.01602 ± 4.7e-05
273.19 K, 600.3 kPa, x1 = 0.7498	0.01605 ± 4.7e-05
273.19 K, 603.1 kPa, x1 = 0.4996	0.01533 ± 4.2e-05
273.19 K, 800.1 kPa, x1 = 0.4996	0.01537 ± 4.2e-05
273.19 K, 800.2 kPa, x1 = 0.7498	0.0161 ± 4.7e-05
273.19 K, 1000.1 kPa, x1 = 0.7498	0.01613 ± 4.7e-05
273.19 K, 1200.6 kPa, x1 = 0.7498	0.01619 ± 4.7e-05
273.2 K, 201.1 kPa, x1 = 0.2479	0.01448 ± 5.3e-05
273.2 K, 205.6 kPa, x1 = 0.4996	0.01527 ± 4.2e-05
273.2 K, 397.9 kPa, x1 = 0.2479	0.0145 ± 5.3e-05
273.2 K, 601.6 kPa, x1 = 0.2479	0.01453 ± 5.3e-05
273.2 K, 1004.5 kPa, x1 = 0.4996	0.01541 ± 4.2e-05
273.21 K, 108.1 kPa, x1 = 0.2479	0.01448 ± 5.3e-05
273.21 K, 793.9 kPa, x1 = 0.2479	0.01457 ± 5.3e-05
273.24 K, 100.7 kPa, x1 = 1	0.01659 ± 3e-05
273.24 K, 200.8 kPa, x1 = 1	0.01661 ± 3e-05
273.24 K, 400.5 kPa, x1 = 1	0.01664 ± 3e-05
273.24 K, 600.4 kPa, x1 = 1	0.01667 ± 3e-05
273.24 K, 800.6 kPa, x1 = 1	0.01671 ± 3e-05
273.24 K, 1000.6 kPa, x1 = 1	0.01674 ± 3e-05
273.24 K, 1499.8 kPa, x1 = 1	0.01685 ± 3e-05
298.19 K, 108.9 kPa, x1 = 0.7498	0.01719 ± 4.4e-05
298.19 K, 196.7 kPa, x1 = 0.7498	0.01721 ± 4.4e-05
298.19 K, 402.3 kPa, x1 = 0.7498	0.01724 ± 4.4e-05
298.19 K, 604.2 kPa, x1 = 0.7498	0.01727 ± 4.4e-05
298.19 K, 801 kPa, x1 = 0.7498	0.0173 ± 4.4e-05
298.19 K, 999.3 kPa, x1 = 0.7498	0.01734 ± 4.4e-05
298.19 K, 1498.4 kPa, x1 = 0.7498	0.01744 ± 4.4e-05
298.2 K, 202.6 kPa, x1 = 0.7498	0.0172 ± 4.4e-05
298.2 K, 390.5 kPa, x1 = 0.7498	0.01724 ± 4.4e-05
298.2 K, 599.6 kPa, x1 = 0.7498	0.01727 ± 4.4e-05
298.2 K, 807 kPa, x1 = 0.7498	0.0173 ± 4.4e-05
298.2 K, 1008.5 kPa, x1 = 0.7498	0.01734 ± 4.4e-05
298.2 K, 1501.4 kPa, x1 = 0.7498	0.01744 ± 4.4e-05
298.21 K, 108 kPa, x1 = 0.4996	0.0165 ± 3.1e-05
298.21 K, 108.7 kPa, x1 = 0.2479	0.01571 ± 4.2e-05
298.21 K, 109 kPa, x1 = 0.4996	0.01649 ± 3.1e-05
298.21 K, 109 kPa, x1 = 0.7498	0.01719 ± 4.4e-05
298.21 K, 201.9 kPa, x1 = 0.4996	0.01651 ± 3.1e-05
298.21 K, 204.7 kPa, x1 = 0.4996	0.0165 ± 3.1e-05
298.21 K, 205.2 kPa, x1 = 0.2479	0.01572 ± 4.2e-05
298.21 K, 395.1 kPa, x1 = 0.2479	0.01574 ± 4.2e-05
298.21 K, 399.1 kPa, x1 = 0.4996	0.01654 ± 3.1e-05
298.21 K, 402.3 kPa, x1 = 0.4996	0.01654 ± 3.1e-05
298.21 K, 593.4 kPa, x1 = 0.4996	0.01656 ± 3.1e-05
298.21 K, 602.9 kPa, x1 = 0.2479	0.01577 ± 4.2e-05
298.21 K, 603.8 kPa, x1 = 0.4996	0.01657 ± 3.1e-05
298.21 K, 800.9 kPa, x1 = 0.4996	0.0166 ± 3.1e-05
298.21 K, 803.6 kPa, x1 = 0.4996	0.01661 ± 3.1e-05
298.21 K, 807.6 kPa, x1 = 0.2479	0.01581 ± 4.2e-05
298.21 K, 1000 kPa, x1 = 0.4996	0.01664 ± 3.1e-05
298.21 K, 1002.4 kPa, x1 = 0.2479	0.01585 ± 4.2e-05
298.21 K, 1003.3 kPa, x1 = 0.4996	0.01664 ± 3.1e-05
298.21 K, 1202 kPa, x1 = 0.4996	0.0167 ± 3.1e-05
298.21 K, 1204.4 kPa, x1 = 0.4996	0.01669 ± 3.1e-05
298.22 K, 107.9 kPa, x1 = 0.2479	0.01571 ± 4.2e-05
298.22 K, 204.8 kPa, x1 = 0.2479	0.01572 ± 4.2e-05
298.22 K, 401.2 kPa, x1 = 0.2479	0.01575 ± 4.2e-05
298.22 K, 602.1 kPa, x1 = 0.2479	0.01578 ± 4.2e-05
298.22 K, 794.6 kPa, x1 = 0.2479	0.01581 ± 4.2e-05
298.22 K, 1003 kPa, x1 = 0.2479	0.01585 ± 4.2e-05
298.24 K, 800.5 kPa, x1 = 1	0.01785 ± 2.5e-05
298.25 K, 99.6 kPa, x1 = 1	0.01776 ± 2.5e-05
298.25 K, 100.7 kPa, x1 = 1	0.01777 ± 2.5e-05
298.25 K, 200.5 kPa, x1 = 1	0.01778 ± 2.5e-05
298.25 K, 400.7 kPa, x1 = 1	0.0178 ± 2.5e-05
298.25 K, 400.8 kPa, x1 = 1	0.0178 ± 2.5e-05
298.25 K, 600.2 kPa, x1 = 1	0.01783 ± 2.5e-05
298.25 K, 1000.1 kPa, x1 = 1	0.01789 ± 2.5e-05
298.25 K, 1500.2 kPa, x1 = 1	0.01799 ± 2.5e-05
323.2 K, 109.1 kPa, x1 = 0.7498	0.01837 ± 5.1e-05
323.2 K, 198.2 kPa, x1 = 0.7498	0.01838 ± 5.1e-05
323.2 K, 393.8 kPa, x1 = 0.7498	0.01841 ± 5.1e-05
323.2 K, 600.2 kPa, x1 = 0.7498	0.01844 ± 5.1e-05
323.2 K, 800.3 kPa, x1 = 0.7498	0.01847 ± 5.1e-05
323.2 K, 1000.9 kPa, x1 = 0.7498	0.0185 ± 5.1e-05
323.2 K, 1500.1 kPa, x1 = 0.7498	0.0186 ± 5.1e-05
323.22 K, 108.4 kPa, x1 = 0.2479	0.01691 ± 5.5e-05
323.22 K, 109.2 kPa, x1 = 0.4996	0.01769 ± 4.2e-05
323.22 K, 196.1 kPa, x1 = 0.2479	0.01693 ± 5.5e-05
